# From PubChem BioAssay AID489040 (Sanford-Burnham Center for Chemical Genomics, 2010)
# Calls of active or inactive are those of the source.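 Rule for the calls: active = mean half-maximal activating concentration from the dose-response fit at or below a set limit; inactive = the rest.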
# Molecular target: CHO-XBP1 luciferase reporter, IRE1-XBP1 UPR activation
# Assay: activators of IRE1-XBP1 UPR arm, dose response, counter-screen for apoptotic UPR arm activators, CHO-XBP1 cells, luminescence (AID 489040);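 note: reporter read after six hours of compound exposure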
row,SMILES,EC50
1,Cc1cc(C)cc(NC(=O)/C(C#N)=C/c2cn(CC(=O)NCc3ccco3)c3ccccc23)c1,> 80 µM (inactive)
2,C/C(=N\NC(=O)c1ccc(Cl)cc1)c1ccccn1,> 80 µM (inactive)
3,COc1cc(SC#N)ccc1N=Cc1c(C)[nH]n(-c2ccc(Cl)cc2)c1=O,15.9 µM
4,CCOC(=O)c1cc(-c2ccc(/C=C3/C(=O)N(c4ccc(C(=O)O)cc4)N=C3C)o2)ccc1Cl,> 80 µM (inactive)
5,CC(C)(C)C(=O)N1CCN(c2ccc(NC(=O)c3ccc([N+](=O)[O-])o3)cc2)CC1,> 80 µM (inactive)
6,O=[N+]([O-])c1ccc(Sc2cccc3cccnc23)c([N+](=O)[O-])c1,> 80 µM (inactive)
7,Cc1ccn2cc(-c3ccc(O)c(O)c3)nc2c1,> 80 µM (inactive)
8,O=C(N/N=C/c1ccccn1)c1ccc(Cl)c(Cl)c1,> 80 µM (inactive)
9,CCOC(=O)C(CC)(CC)C(=O)/C=C/c1cccc(Br)c1,> 80 µM (inactive)
10,O=C(NCc1ccccc1Cl)c1cccc2c1C(=O)c1ccc(-c3ccc(OC(F)(F)F)cc3)cc1S2(=O)=O,inactive
11,COc1ccc(N=c2oc3ccc(OC)cc3cc2-c2nc3ccccc3[nH]2)cc1,12.5 µM
12,Cc1ccc(NN2C(=O)C=C(c3ccccc3)C2=O)cc1,> 80 µM (inactive)
13,COC(=O)c1cc(=O)n(CCc2ccc(OC)c(OC)c2)c(=Nc2ccc(F)c(Cl)c2)s1,> 80 µM (inactive)
14,O=C1NC(=O)N(Cc2ccccc2)C(=O)/C1=C\C=C\c1ccco1,> 80 µM (inactive)
15,O=C1NC(=O)N(Cc2ccccc2Cl)C(=O)/C1=C/c1cccs1,> 80 µM (inactive)
16,COC(=O)c1c(NC(=O)c2ccc([N+](=O)[O-])o2)sc2c1CCN(C(C)C)C2,> 80 µM (inactive)
17,Cc1nn(Cc2c(Cl)cccc2Cl)c(C)c1NC(=O)c1sc2ccccc2c1Cl,inactive
18,CCCCCOc1ccc(N2C(=O)CC(N(O)c3ccccc3)C2=O)cc1 (stereo unspecified),> 80 µM (inactive)
19,CCOC(=O)N1CCN(Cc2ccc(O)c3ncccc23)CC1,> 80 µM (inactive)
20,COCc1ccc(O)c2ncccc12,inactive
21,N#Cc1cc([N+](=O)[O-])c(-n2nnc3ccccc32)c([N+](=O)[O-])c1,inactive
22,CCCCC1CCC(C(=O)N(CCCC)c2c(N)n(CCCC)c(=O)[nH]c2=O)CC1 (stereo unspecified),> 80 µM (inactive)
23,O=C(/C=C\c1ccccc1OC(=O)c1ccccc1F)c1cc2ccccc2o1,13.7 µM
24,Cc1cnc(NC(=O)c2cc(S(=O)(=O)N(C)C)ccc2N2CCCC2)s1,3.28 µM

row,SMILES,EC50
1,O=c1nc(Nc2cccc(Cl)c2)oc2cc(Cl)oc(=O)c12,> 80 µM (inactive)
2,CC[C@@H](C)[C@H](NC(=O)OC(C)(C)C)c1nnc(S(=O)(=O)Cc2cc(C)ccc2C)o1,> 80 µM (inactive)
3,CCc1nnc(NC(=O)c2nc(S(=O)(=O)Cc3ccc(C)cc3)ncc2Cl)s1,> 80 µM (inactive)
4,O=C(CN1CCN(c2ccccc2F)CC1)c1ccc(O)c(O)c1,> 80 µM (inactive)
5,CCn1c(O)c(C2=c3ccccc3=NC2=O)c2cc(Br)ccc21,> 80 µM (inactive)
6,O=C(/C(=C\c1ccccc1)c1nc2ccccc2[nH]1)c1ccc(Cl)cc1,> 80 µM (inactive)
7,Brc1ccc(-c2ccc(/C=N/Nc3nncc(-c4ccccc4)n3)o2)cc1,inactive
8,CN(c1ccccc1)S(=O)(=O)c1cccc(C(=O)NCCc2ccc(O)c(O)c2)c1,9.81 µM
9,COc1cc(CNc2ccc3[nH]c(=O)[nH]c3c2)cc(Br)c1OCc1ccccc1F,> 80 µM (inactive)
10,Cc1cc(NC(=O)c2cc(-c3ccccn3)nc3ccc(Br)cc23)no1,> 80 µM (inactive)
11,O=C(NC1CCCC1)C(c1ccc(Cl)cc1)N(Cc1ccc(F)cc1)C(=O)CCl (stereo unspecified),> 80 µM (inactive)
12,CCOC(=O)C(=Cc1ccc(OCc2ccc([N+](=O)[O-])cc2)c(OC)c1)C(=O)OCC,> 80 µM (inactive)
13,Cc1ccc(C[n+]2c(-c3ccc(C)cc3)cc(-c3ccc(C)cc3)cc2-c2ccc(C)cc2)cc1,> 80 µM (inactive)
14,CCc1nnc(NC(=O)CSc2nc(-c3ccccc3)cc(-c3ccc(OC)cc3)c2C#N)s1,> 80 µM (inactive)
15,CCOC(=O)c1ccc(N=C2C(=S)N(c3ccc(C(=O)OCC)cc3)C(=N)N2/N=C/c2ccccc2)cc1,> 80 µM (inactive)
16,O=C(CCl)Nc1cccc(CP(=O)(c2ccccc2)c2ccccc2)c1,> 80 µM (inactive)
17,Cc1ccc(NC(=O)c2ccc([N+](=O)[O-])o2)cc1S(=O)(=O)N1CCOCC1,> 80 µM (inactive)
18,O=C(N/N=C/c1ccccn1)c1cc(-c2ccc(Cl)cc2)nc2ccccc12,> 80 µM (inactive)
19,O=[N+]([O-])c1ccc2nc(Cl)nc(-c3ccccc3)c2c1,> 80 µM (inactive)
20,Cc1ccc(F)cc1N=Cc1c(O)c2ccccc2oc1=O,> 80 µM (inactive)
21,COc1ccc(-c2cc(-c3ccccc3)c(C#N)c(S(C)(=O)=O)n2)cc1,5.94 µM
22,COc1cc(NS(=O)(=O)c2ccc3ccccc3c2)c2ncccc2c1,15.5 µM
23,CC(C)(C)C(=O)NC(=S)NNC(=O)c1ccc(-c2ccccc2)cc1,9.6 µM
24,Cc1ccc(S/C=C\C(=O)c2ccccc2)cc1,> 80 µM (inactive)

row,SMILES,EC50
1,O=C(/C(=C/c1ccc(Cl)cc1)c1nc2ccccc2[nH]1)c1ccccc1,> 80 µM (inactive)
2,Cc1ccc(C)c(C(=O)Cn2ncc(Cl)c(Cl)c2=O)c1,> 80 µM (inactive)
3,CCOc1ccc(-n2c(C)cc(C(=O)CCl)c2C)cc1,5.83 µM
4,Cc1cc(C(=O)CCl)c(C)n1CCc1ccc(F)cc1,> 80 µM (inactive)
5,Cc1ccnc(Nc2nc(-c3ccc(O)c(O)c3)cs2)c1,> 80 µM (inactive)
6,COc1ccc(CCNC(=O)c2coc(=O)c(Br)c2)cc1,> 80 µM (inactive)
7,COc1ccc(C(=O)NCC(=O)N/N=C/c2ccc([N+](=O)[O-])o2)cc1OC,> 80 µM (inactive)
8,CCOC(=O)c1ccc(-c2ccc(/C=N/NC(=O)CN(c3cccc(C)c3)S(C)(=O)=O)o2)cc1,inactive
9,c1ccc(-c2nc(N3CCCCCC3)c3ccccc3n2)nc1,> 80 µM (inactive)
10,C/C(=N\NC(=O)c1cc(-c2cccs2)nc2ccccc12)c1ccccn1,> 80 µM (inactive)
11,CCn1c(-c2ccccc2)c(C(=O)CCl)c2ccccc21,> 80 µM (inactive)
12,COC(=O)c1ccc(C(=O)OC)c(NC(=O)CSc2cccc[n+]2[O-])c1,9.54 µM
13,CCc1nn(-c2cc(Oc3cccc4ccccc34)nc(-c3ccccc3)n2)c(N)c1C#N,inactive
14,S=C(Nc1ccccn1)c1ccccn1,> 80 µM (inactive)
15,Cc1cc(C(=O)CCl)c(C)n1CC1COc2ccccc2O1 (stereo unspecified),> 80 µM (inactive)
16,Cc1nc([N+](=O)[O-])c(Br)n1CC(=O)c1ccc2ccccc2c1,> 80 µM (inactive)
17,COc1ccccc1-c1cc(C(F)(F)F)nc(S(=O)(=O)CCCC(=O)NCc2ccc(F)cc2)n1,> 80 µM (inactive)
18,Clc1ccc(-c2ccc(/C=N/Nc3nncc(-c4ccccc4)n3)o2)cc1,inactive
19,CCOC(=O)/C(=C\c1cccc(O)c1)c1nc2sc(C)c(C)c2c(=O)[nH]1,> 80 µM (inactive)
20,O=C(Nc1nccs1)c1cccc(N2C(=O)c3cccc4c([N+](=O)[O-])ccc(c34)C2=O)c1,> 80 µM (inactive)
21,COc1ccc(NC(=O)c2nc(S(=O)(=O)Cc3cccc(C)c3)ncc2Cl)c(OC)c1,> 80 µM (inactive)
22,O=C(CCl)Nc1cc(S(=O)(=O)N2CCCCCC2)ccc1Cl,> 80 µM (inactive)
23,CC(C)c1ccc(N2C(=O)NC(=O)/C(=C\C=C\c3ccco3)C2=O)cc1,> 80 µM (inactive)
24,Oc1ccc(CN2CCc3ccccc3C2)c2cccnc12,> 80 µM (inactive)

row,SMILES,EC50
1,Cc1ccc(C(=O)Oc2ccc(Cl)c3cccnc23)cc1[N+](=O)[O-],> 80 µM (inactive)
2,Cc1ccc(C)c(NC(=O)/C(C#N)=C/c2cn(CC(=O)NCc3ccco3)c3ccccc23)c1,6.33 µM
3,CCOC(=O)c1cnc(-n2nc(C)cc2C)nc1Nc1ccc(N(C)C)cc1,> 80 µM (inactive)
4,COc1cccc(-n2c(SCC(=O)N3CCc4ccccc43)nnc2-c2c[nH]c3ccccc23)c1,inactive
5,Oc1cc(-c2ccncc2)cc2cccnc12,> 80 µM (inactive)
6,O=C(CSC(=S)N1CCCC1)c1cc(Br)cc(Br)c1O,> 80 µM (inactive)
7,O=C(Nc1nc(-c2ccccn2)cs1)c1cc(Cl)ccc1[N+](=O)[O-],> 80 µM (inactive)
8,COc1ccc(Cn2c(SCc3ccc(C)cc3)nc3cc(OC)c(OC)cc3c2=N)cc1Cl,> 80 µM (inactive)
9,CC(C)[C@H](NC(=O)OC(C)(C)C)c1nnc(S(=O)(=O)Cc2c(F)cccc2Cl)o1,> 80 µM (inactive)
10,CC1=C/C(=N\OC(=O)/C=C/c2ccccc2)C(C)=CC1=O,> 80 µM (inactive)
11,Oc1cc(-c2cccnc2)cc2cccnc12,inactive
12,O=C1CC(c2cccc(Cl)c2)CC(O)=C1C=Nc1ccccc1 (stereo unspecified),> 80 µM (inactive)
13,O=C(O)CC1CCC(=C(Cl)Cl)C1 (stereo unspecified),> 80 µM (inactive)
14,Cc1ccc2[nH]cc(C(=O)CCl)c2c1,> 80 µM (inactive)
15,CCCCCCCCCCn1c2c(c(=N)c3c1CCC3)CCC2,19.8 µM
16,COc1ccc(C(=O)Cn2c(C(=O)/C=C/c3ccccc3)nc3ccccc32)cc1,> 80 µM (inactive)
17,CCOc1cc(C=C(C(=O)OC)C(=O)OC)ccc1OCc1ccc([N+](=O)[O-])cc1,> 80 µM (inactive)
18,O=C1C(Cl)=C(NC(=O)c2ccccc2)C(=O)C(Cl)=C1NC(=O)c1ccccc1,> 80 µM (inactive)
19,CC(NC(=O)CN(c1cccc(C(F)(F)F)c1)S(=O)(=O)c1ccc(Cl)c([N+](=O)[O-])c1)c1ccccc1 (stereo unspecified),> 80 µM (inactive)
20,CN1/C(=C\C(=O)COC(=O)c2ccc(O)c(O)c2)C(C)(C)c2ccccc21,9.91 µM
21,O=C(NCc1ccccc1Br)c1cccc2c1C(=O)c1ccc(-c3ccc(OC(F)(F)F)cc3)cc1S2(=O)=O,17 µM
22,COC(=O)c1cc(=O)n(CCc2ccc(OC)cc2)c(=Nc2ccc(F)c(Cl)c2)s1,> 80 µM (inactive)
23,Cc1cc(N2CCN(c3ccc([N+](=O)[O-])c4cccnc34)CC2)c2ccccc2n1,> 80 µM (inactive)
24,Cc1cccc(CSc2cccc3cccnc23)c1,> 80 µM (inactive)
